13 molecules from patent publication US9592221B2, “Antibacterial agents: aryl myxopyronin derivatives” (priority 2012, dated 2017) can be followed below.

Structures are written as SMILES.

Assay [1] deals with Burkholderia pseudomallei Human/Blood/OH/US/1994. Briefly: microbe, parasite or virus in culture. The assay is classed as cell-based. The following applies: Burkholderia pseudomallei, read-out: MIC B. pseudomallei Human/Blood/OH.
In assay [2] the target is E. coli RNA polymerase σ^70 holoenzyme (Escherichia coli, UniProt P0A8T7+P0A8V2). Description: Fluorescence-detected RNA polymerase assay, E. coli RNA polymerase. Conditions: read-out: IC50 E. coli RNAP. The assay is classed as biochemical.
Assay [3] relates to Bacillus anthracis Vollum 1b. Briefly: microbe, parasite or virus in culture. Format: cell-based. Conditions: Bacillus anthracis, VOLLUM1B, read-out: MIC B. anthracis Vollum-1b.
The subject of assay [4] is Mycobacterium tuberculosis H37Rv. Description: MIC, microplate Alamar Blue assay, M. tuberculosis. The assay is classed as cell-based. A general note: Alamar Blue is a resazurin reagent that responds to reducing activity.
Another assay deals with Burkholderia mallei CHN7. Briefly: microbe, parasite or virus in culture. The assay is classed as cell-based. Conditions: Burkholderia mallei, CHN7, read-out: MIC B. mallei CHN7.
The next assay has as its system Brucella melitensis 16M. Briefly: microbe, parasite or virus in culture. Format: cell-based. Conditions: Brucella melitensis, 16M, read-out: MIC B. melitensis 16M.
A further assay relates to Yersinia pestis C092. Description: microbe, parasite or virus in culture. Format: cell-based. Conditions: Yersinia pestis, C092, read-out: MIC Y. pestis C092.
For assay [5], the system named is Francisella tularensis SCHU4. Briefly: microbe, parasite or virus in culture. Format: cell-based. Conditions: Francisella tularensis, SCHU4, read-out: MIC F. tularensis SCHU4.
Assay [6] relates to Staphylococcus aureus ATCC 12600. Description: MIC, spiral gradient endpoint assay, S. aureus ATCC 12600. Format: cell-based. Conditions: ATCC12600; Staphylococcus aureus ATCC 12600.
Assay [7] deals with Escherichia coli D21f2tolC. Description: MIC, spiral gradient endpoint assay, E. coli D21f2tolC. The assay is classed as cell-based. Conditions: Escherichia coli, D21F2TOLC, read-out: MIC E. coli D21f2toIC.
In assay [8] the test system is Acinetobacter baumannii ATCC 19606. Description: MIC, spiral gradient endpoint assay, A. baumannii. Format: cell-based. Conditions: ATCC19606; Acinetobacter baumannii ATCC 19606.

Sequence of E. coli RNA polymerase σ^70 holoenzyme (P0A8T7 whole entry): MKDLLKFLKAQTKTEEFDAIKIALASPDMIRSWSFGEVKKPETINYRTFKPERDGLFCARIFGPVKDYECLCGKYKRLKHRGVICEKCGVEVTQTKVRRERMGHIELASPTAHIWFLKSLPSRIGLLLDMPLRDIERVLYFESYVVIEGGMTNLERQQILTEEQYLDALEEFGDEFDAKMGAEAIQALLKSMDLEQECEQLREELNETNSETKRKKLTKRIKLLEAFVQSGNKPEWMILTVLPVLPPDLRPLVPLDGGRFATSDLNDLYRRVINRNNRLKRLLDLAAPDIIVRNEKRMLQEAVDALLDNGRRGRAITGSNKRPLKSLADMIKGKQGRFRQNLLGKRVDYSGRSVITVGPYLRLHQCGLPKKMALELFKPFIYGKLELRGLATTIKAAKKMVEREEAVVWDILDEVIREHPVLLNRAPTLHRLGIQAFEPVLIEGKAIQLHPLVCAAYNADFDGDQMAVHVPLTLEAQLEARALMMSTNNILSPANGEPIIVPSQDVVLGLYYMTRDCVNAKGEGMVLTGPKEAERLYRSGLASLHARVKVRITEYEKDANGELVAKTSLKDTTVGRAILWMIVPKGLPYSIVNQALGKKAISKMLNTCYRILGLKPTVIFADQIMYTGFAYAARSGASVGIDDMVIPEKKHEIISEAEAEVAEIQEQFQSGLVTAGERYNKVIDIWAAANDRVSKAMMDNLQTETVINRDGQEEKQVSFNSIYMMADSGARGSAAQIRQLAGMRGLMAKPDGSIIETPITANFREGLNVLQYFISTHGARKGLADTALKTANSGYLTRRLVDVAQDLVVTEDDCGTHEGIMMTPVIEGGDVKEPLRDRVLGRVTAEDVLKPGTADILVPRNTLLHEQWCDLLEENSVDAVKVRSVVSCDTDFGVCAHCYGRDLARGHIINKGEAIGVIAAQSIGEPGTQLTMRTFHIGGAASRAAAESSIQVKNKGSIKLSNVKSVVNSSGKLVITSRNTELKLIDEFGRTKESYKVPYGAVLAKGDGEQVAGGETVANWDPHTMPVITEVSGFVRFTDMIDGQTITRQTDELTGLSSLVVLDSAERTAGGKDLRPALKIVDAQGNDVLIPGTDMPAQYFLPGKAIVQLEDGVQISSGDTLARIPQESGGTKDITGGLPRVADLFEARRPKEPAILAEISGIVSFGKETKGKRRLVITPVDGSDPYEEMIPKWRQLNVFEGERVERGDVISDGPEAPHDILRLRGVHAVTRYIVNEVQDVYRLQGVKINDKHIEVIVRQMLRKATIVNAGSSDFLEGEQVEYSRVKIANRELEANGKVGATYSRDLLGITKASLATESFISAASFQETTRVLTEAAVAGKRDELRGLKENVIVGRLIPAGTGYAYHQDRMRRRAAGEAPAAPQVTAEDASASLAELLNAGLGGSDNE
Sequence of E. coli RNA polymerase σ^70 holoenzyme (P0A800 whole entry, further chain): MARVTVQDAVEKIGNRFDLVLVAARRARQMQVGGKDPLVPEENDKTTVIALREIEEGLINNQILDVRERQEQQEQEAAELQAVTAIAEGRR
Sequence of E. coli RNA polymerase σ^70 holoenzyme (P0A8V2 whole entry): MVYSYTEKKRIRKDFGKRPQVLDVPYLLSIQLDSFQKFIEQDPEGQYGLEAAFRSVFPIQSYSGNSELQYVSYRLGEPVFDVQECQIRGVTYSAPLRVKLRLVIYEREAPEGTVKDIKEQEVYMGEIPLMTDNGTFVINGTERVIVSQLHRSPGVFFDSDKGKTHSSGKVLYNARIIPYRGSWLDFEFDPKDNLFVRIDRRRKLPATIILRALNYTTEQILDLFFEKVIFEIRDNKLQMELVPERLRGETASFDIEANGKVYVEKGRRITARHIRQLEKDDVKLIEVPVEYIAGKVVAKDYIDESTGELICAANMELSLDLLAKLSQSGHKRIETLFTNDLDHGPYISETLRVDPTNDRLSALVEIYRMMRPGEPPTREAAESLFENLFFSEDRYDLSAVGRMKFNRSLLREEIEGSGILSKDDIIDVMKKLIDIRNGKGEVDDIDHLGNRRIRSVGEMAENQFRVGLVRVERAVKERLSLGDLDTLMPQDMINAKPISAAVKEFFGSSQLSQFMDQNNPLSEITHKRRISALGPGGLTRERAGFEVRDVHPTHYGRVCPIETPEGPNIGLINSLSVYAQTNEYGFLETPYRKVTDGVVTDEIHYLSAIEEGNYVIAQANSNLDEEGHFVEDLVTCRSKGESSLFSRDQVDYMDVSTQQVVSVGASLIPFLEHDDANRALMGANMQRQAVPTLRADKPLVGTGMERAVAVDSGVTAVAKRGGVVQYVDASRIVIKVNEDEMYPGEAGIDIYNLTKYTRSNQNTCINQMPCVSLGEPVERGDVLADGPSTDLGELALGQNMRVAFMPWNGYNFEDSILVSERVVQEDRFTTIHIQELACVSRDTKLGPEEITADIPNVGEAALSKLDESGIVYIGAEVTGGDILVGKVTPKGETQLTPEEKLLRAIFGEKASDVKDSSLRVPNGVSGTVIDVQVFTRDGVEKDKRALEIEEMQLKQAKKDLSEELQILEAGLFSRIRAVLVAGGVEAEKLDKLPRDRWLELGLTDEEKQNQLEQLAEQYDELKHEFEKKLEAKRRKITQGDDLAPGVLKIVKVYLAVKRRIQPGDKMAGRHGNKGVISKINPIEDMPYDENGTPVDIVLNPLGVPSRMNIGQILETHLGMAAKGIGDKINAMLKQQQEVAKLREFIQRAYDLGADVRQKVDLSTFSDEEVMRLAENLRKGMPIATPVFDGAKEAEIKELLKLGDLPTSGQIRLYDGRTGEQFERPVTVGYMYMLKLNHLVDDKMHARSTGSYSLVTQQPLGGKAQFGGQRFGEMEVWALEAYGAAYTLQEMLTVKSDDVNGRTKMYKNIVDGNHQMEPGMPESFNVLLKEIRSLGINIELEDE
Sequence of E. coli RNA polymerase σ^70 holoenzyme (P00579 whole entry, further chain): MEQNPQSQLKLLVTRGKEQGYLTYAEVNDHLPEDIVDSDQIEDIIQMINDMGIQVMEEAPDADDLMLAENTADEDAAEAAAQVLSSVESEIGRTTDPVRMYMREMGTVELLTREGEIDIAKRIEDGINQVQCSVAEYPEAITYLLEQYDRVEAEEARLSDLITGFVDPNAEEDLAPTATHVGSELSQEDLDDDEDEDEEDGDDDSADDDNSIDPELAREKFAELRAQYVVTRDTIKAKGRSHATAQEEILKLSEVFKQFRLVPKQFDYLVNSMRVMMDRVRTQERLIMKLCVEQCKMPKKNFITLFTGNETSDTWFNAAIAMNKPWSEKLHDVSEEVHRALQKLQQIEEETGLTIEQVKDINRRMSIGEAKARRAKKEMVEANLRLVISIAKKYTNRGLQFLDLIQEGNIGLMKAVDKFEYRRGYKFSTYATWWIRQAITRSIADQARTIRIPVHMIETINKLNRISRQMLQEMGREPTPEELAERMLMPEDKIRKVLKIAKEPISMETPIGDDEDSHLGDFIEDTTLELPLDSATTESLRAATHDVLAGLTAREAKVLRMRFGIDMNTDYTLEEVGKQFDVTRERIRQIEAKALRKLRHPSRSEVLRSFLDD
Sequence of E. coli RNA polymerase σ^70 holoenzyme (P0A7Z4 whole entry, further chain): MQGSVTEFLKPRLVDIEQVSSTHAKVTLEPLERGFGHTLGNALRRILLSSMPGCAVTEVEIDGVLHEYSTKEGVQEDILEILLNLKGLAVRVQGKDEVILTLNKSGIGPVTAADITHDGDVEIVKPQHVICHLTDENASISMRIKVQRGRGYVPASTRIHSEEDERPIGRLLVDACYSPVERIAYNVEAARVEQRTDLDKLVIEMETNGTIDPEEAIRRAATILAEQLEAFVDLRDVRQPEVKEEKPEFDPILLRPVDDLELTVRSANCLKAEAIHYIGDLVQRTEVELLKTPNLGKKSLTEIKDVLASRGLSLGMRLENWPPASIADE

Take `COC(=O)N/C=C/CCC(C)c1cc(O)c(C(=O)C(C)=Cc2ccc(OCCC(C)(C)C)cc2)c(=O)o1` (mixture of isomers) [APY48, methyl (E)-5-(3-((E/Z)-3-(4-(3,3-dimethylbutoxy)phenyl)-2-methylacryloyl)-4-hydroxy-2-oxo-2H-pyran-6-yl)hex-1-enylcarbamate]: the MIC in assay [1] was more than 50 µg/mL; in [3], 6 µg/mL; in assay [4], 10 µg/mL; with Burkholderia mallei CHN7, 50 µg/mL; in the assay with Brucella melitensis 16M, 6 µg/mL; with Yersinia pestis C092, more than 50 µg/mL. For the same molecule, the MIC in assay [5] and in assay [6] was 10 µg/mL in each case. The IC50 (usually the concentration that inhibits the measured activity by half) in assay [2] was 900 nM.
With `CCCCc1ncc(C=C(C)C(=O)c2c(O)cc(C(C)CC/C=C/NC(=O)OC)oc2=O)s1` (mixture of isomers) [APY136, methyl ((1E)-5-(3-(3-(2-butylthiazol-5-yl)-2-methylacryloyl)-4-hydroxy-2-oxo-2H-pyran-6-yl)hex-1-en-1-yl)carbamate], the MIC is 50 µg/mL in assay [1]; 10 µg/mL in [3]; 6 µg/mL in [4]; 30 µg/mL in the assay on Burkholderia mallei CHN7; 6 µg/mL with Brucella melitensis 16M; 10 µg/mL in the assay with Yersinia pestis C092. Besides, the MIC in assay [5] is more than 50 µg/mL; in assay [7], 0.2 µg/mL; in [8], more than 40 µg/mL; in assay [6] it was 1 µg/mL. The IC50 in assay [2] worked out at 20 nM.
For `CCCCCc1ccc(C=C(C)C(=O)c2c(O)cc(C(C)CC/C=C/NC(=O)OC)oc2=O)s1` (mixture of isomers) [APY59, methyl (E)-5-(4-hydroxy-5-((E/Z)-2-methyl-3-(5-pentylthiophen-2-yl)acryloyl)-6-oxo-6H-pyran-2-yl)hex-1-enylcarbamate], the MIC in assay [1] was found to be 10 µg/mL; in assay [3], 2 µg/mL; in assay [4], 30 µg/mL; with Burkholderia mallei CHN7 it was 6 µg/mL; in the assay on Brucella melitensis 16M, 6 µg/mL; in assay [5], 10 µg/mL. Further, the MIC in [7] was 0.2 µg/mL; in assay [8] it was 7 µg/mL; in [6], 0.3 µg/mL. Further, in assay [2], the 50% inhibitory concentration (IC50) came to 10 nM.
Consider `COC(=O)N/C=C/CCC(C)c1cc(O)c(C(=O)C(C)=Cc2ccc(CCCCCC(F)(F)F)s2)c(=O)o1` (mixture of isomers) [APY82, methyl ((1E)-5-(4-hydroxy-3-(2-methyl-3-(5-(6,6,6-trifluorohexyl)thiophen-2-yl)acryloyl)-2-oxo-2H-pyran-6-yl)hex-1-en-1-yl)carbamate], for which the MIC was 6 µg/mL in assay [1]; 3 µg/mL in assay [3]; more than 50 µg/mL in assay [4]; 6 µg/mL in the assay with Burkholderia mallei CHN7; 2 µg/mL in the assay on Brucella melitensis 16M; 10 µg/mL in [5]. In addition, the figures for the MIC in assay [7], in [8] and in assay [6] were 0.07 µg/mL, 20 µg/mL and 10 µg/mL, respectively. In assay [2], the half-inhibitory concentration (IC50) worked out at 5 nM.
With `COC(=O)N/C=C/CCC(C)c1cc(O)c(C(=O)C(C)=Cc2ccc(OCC(C)C)cc2)c(=O)o1` (mixture of isomers) [APY53, methyl (E)-5-(4-hydroxy-3-((E/Z)-3-(4-isobutoxyphenyl)-2-methacryloyl)-4-hydroxy-2-oxo-2H-pyran-6-yl)hex-1-enylcarbamate], the MIC in assay [1] was more than 50 µg/mL; in [3] it was 3 µg/mL; in assay [4], 6 µg/mL; in the assay with Burkholderia mallei CHN7 it was more than 50 µg/mL; in the assay on Brucella melitensis 16M, 10 µg/mL; in assay [5], 50 µg/mL. Besides, the MIC in assay [7] is 0.4 µg/mL; in assay [8], more than 40 µg/mL; in assay [6] it was 2 µg/mL. Also, the IC50 in assay [2] was 2000 nM.
In the case of `CCc1ccc(C=C(C)C(=O)c2c(O)cc(C(C)CC/C=C/NC(=O)OC)oc2=O)cc1` (mixture of isomers) [APY70, methyl (E)-5-(5-((E/Z)-3-(4-ethylphenyl)-2-methylacryloyl)-4-hydroxy-6-oxo-6H-pyran-2-yl)hex-1-enylcarbamate], the MIC in assay [1] is more than 50 µg/mL; in assay [3] it was 50 µg/mL; in assay [4], 30 µg/mL; in the assay with Burkholderia mallei CHN7, more than 50 µg/mL; in the assay with Brucella melitensis 16M, 30 µg/mL; in assay [5], more than 50 µg/mL. Moreover, the MIC was 1 µg/mL in [7], more than 40 µg/mL in assay [8] and 20 µg/mL in assay [6]. Also, the IC50 in assay [2] is more than 6000 nM.
As to `COC(=O)N/C=C/CCC(C)c1cc(O)c(C(=O)C(C)=Cc2ccc(OCC3CCCC3)cc2)c(=O)o1` (mixture of isomers) [APY52], the MIC is more than 50 µg/mL in assay [1]; 2 µg/mL in assay [3]; 30 µg/mL in [4]; 50 µg/mL with Burkholderia mallei CHN7; 3 µg/mL with Brucella melitensis 16M; 30 µg/mL in [5]. For the same molecule, the results for the MIC in assay [7], in assay [8] and in assay [6] were 0.4 µg/mL, more than 40 µg/mL and 4 µg/mL, respectively. In [2], the half-inhibitory concentration (IC50) was 2000 nM.
For the molecule `CCCc1ccc(C=C(C)C(=O)c2c(O)cc(C(C)CC/C=C/NC(=O)OC)oc2=O)s1` (mixture of isomers) [APY58, methyl (E)-5-(4-hydroxy-5-((E/Z)-2-methyl-3-(5-propylthiophen-2-yl)acryloyl)-6-oxo-6H-pyran-2-yl)hex-1-enylcarbamate], the MIC in [1] was 50 µg/mL; in assay [3] it was 10 µg/mL; in assay [4], 10 µg/mL; with Burkholderia mallei CHN7, 50 µg/mL; with Brucella melitensis 16M it was more than 50 µg/mL; in [5], 50 µg/mL. The MIC in [7] is 0.2 µg/mL; in [8] it was more than 40 µg/mL; in assay [6] it was 1 µg/mL. For the same molecule, in assay [2], the concentration for half-maximal inhibition (IC50) is 80 nM.
Regarding `COC(=O)N/C=C/CCC(C)c1cc(O)c(C(=O)C(C)=Cc2ccc(OCC(C)(C)C)cc2)c(=O)o1` (mixture of isomers) [APY55, methyl (E)-5-(4-hydroxy-3-((E/Z)-2-methyl-3-(4-(neopentyloxy)phenyl)acryloyl)-2-oxo-2H-pyran-6-yl)hex-1-enylcarbamate], the MIC is more than 50 µg/mL in [1]; 2 µg/mL in [3]; 10 µg/mL in assay [4]; 50 µg/mL in the assay with Burkholderia mallei CHN7; 30 µg/mL with Brucella melitensis 16M; 30 µg/mL in [5]. Besides, the MIC is 0.7 µg/mL in [7], more than 40 µg/mL in assay [8] and 10 µg/mL in assay [6]. Besides, in [2], the IC50 was 40 nM.
`COC(=O)N/C=C/CCC(C)c1cc(O)c(C(=O)C(C)=Cc2ccc(CCC(F)(F)F)cc2)c(=O)o1` (mixture of isomers) [APY74, methyl (E)-5-(5-((E/Z)-3-(4-(3,3,3-trifluoropropyl)phenyl)-2-methylacryloyl)-4-hydroxy-6-oxo-6H-pyran-2-yl)hex-1-enylcarbamate]: the MIC in assay [1] was more than 50 µg/mL; in assay [3] it was 10 µg/mL; in assay [4] it was 10 µg/mL; in the assay with Burkholderia mallei CHN7, more than 50 µg/mL; with Brucella melitensis 16M, 10 µg/mL; in assay [5], 50 µg/mL. Besides, the MIC in [7] was 0.2 µg/mL; in [8] it was more than 40 µg/mL; in assay [6], 2 µg/mL. Also, the IC50 in assay [2] was found to be 40 nM.
For the molecule `COC(=O)N/C=C/CCC(C)c1cc(O)c(C(=O)C(C)=Cc2ccc(CCC(C)(C)C)s2)c(=O)o1` (mixture of isomers) [APY56, methyl (E)-5-(4-hydroxy-5-((E/Z)-2-methyl-3-(5-(3,3-dimethylbutyl)thiophen-2-yl)acryloyl)-6-oxo-6H-pyran-2-yl)hex-1-enylcarbamate], the MIC in assay [1] was determined as 6 µg/mL; in assay [3], 0.2 µg/mL; in [4], 10 µg/mL; in the assay on Burkholderia mallei CHN7 it was 3 µg/mL; with Brucella melitensis 16M, 3 µg/mL; in assay [5], 6 µg/mL. Moreover, the MIC in assay [7] came out at 0.2 µg/mL; in assay [8] it was 10 µg/mL; in [6] it was 0.7 µg/mL. Besides, the IC50 in assay [2] worked out at 7 nM.
In the case of `CCCCc1ccc(C=C(C)C(=O)c2c(O)cc(C(C)CCCCNC(=O)OC)oc2=O)s1` (mixture of isomers) [APY67, methyl 5-(5-((E/Z)-3-(5-butylthiophen-2-yl)-2-methylacryloyl)-4-hydroxy-6-oxo-6H-pyran-2-yl)hexylcarbamate], the MIC is more than 50 µg/mL in assay [1]; 30 µg/mL in [3]; 50 µg/mL in assay [4]; more than 50 µg/mL in the assay with Burkholderia mallei CHN7; 10 µg/mL in the assay with Brucella melitensis 16M; 50 µg/mL in [5]. The MIC in assay [7] was 0.5 µg/mL; in assay [8], more than 40 µg/mL; in assay [6], 5 µg/mL. Besides, in assay [2], the IC50 stood at 1000 nM.
As for `CCc1ccc(C=C(C)C(=O)c2c(O)cc(C(C)CC/C=C/NC(=O)OC)oc2=O)s1` (mixture of isomers) [APY64, methyl (E)-5-(5-((E/Z)-3-(5-ethylthiophen-2-yl)-2-methylacryloyl)-4-hydroxy-6-oxo-6H-pyran-2-yl)hex-1-enylcarbamate], the MIC in assay [1] is more than 50 µg/mL; in assay [3], 50 µg/mL; in assay [4], 30 µg/mL; in the assay with Burkholderia mallei CHN7, more than 50 µg/mL; in the assay on Brucella melitensis 16M, 10 µg/mL; in assay [5], 50 µg/mL. The MIC is 0.8 µg/mL in assay [7], more than 40 µg/mL in assay [8] and 9 µg/mL in [6]. In addition, the IC50 in assay [2] was 200 nM.
